For this test the following is noted: in vivo.

For `OO` [hydrogen peroxide], the “antibiotics use as fraction of the normal dose” value was “⅛” and the effect on mortality entry was “reduced mortality”.
